Here are results for 1 molecule from patent US11945787B2, “Substituted imidazoles for preventing and/or treating cell or tissue necrosis” (Ela Pharma Ltd, priority 2015, dated 2024).

The subject of assay [1] is Balb/c mice, myocardial ischemia/reperfusion. The assay can be described thus: Myocardial ischemia/reperfusion in mice. It counts as in vivo, mouse. The following applies: 30 mg/kg IV 20 min before ischemia and at reperfusion; 30 min ischemia, 6 h reperfusion. How it is done:
Male Balb/c mice (20-25 g; Charles River; Milan; Italy) were housed in a controlled environment and provided with standard rodent chow and water.
Mice were subjected to 30 minutes of myocardial ischemia and 6 hours of reperfusion, using published methodologies (Yet et al, 2001). Study groups consisted of sham, vehicle control, and inhibitor (n=8/group, see below). Briefly, mice were anesthetized with pentobarbital sodium (60 mg/kg body weight) with additional doses given as needed to maintain anesthesia. Mice were intubated and mechanically ventilated with 100% oxygen. Mice received a first IV dose of the active inhibitor 1-(2-(4-methylpiperazin-1-yl)-4,5-dihydro-1H-imidazol-1-yl)propan-1-one (M059-0891) (30 mg/kg) and their chest was opened. […] The area of necrosis, as a % of AAR was quantified. […]
After the reperfusion period, 1 mL/kg of a 4% thioflavin S solution is injected IV in order to delineate the no-reflow area. […] The areas of ischemic and nonischemic regions are computed and expressed as a percentage of the slice, as are the % of necrotic and non-necrotic tissue. […] AAR (unstained blue area) is expressed as a percentage of the LV mass. The extent of necrosis is calculated as a percentage of the LV mass, and the infarct size expressed as a percentage of the AAR (infarct size=extent of necrosis/extent of AAR).

In assay [2] the test system is PC12 cells. The experiment in a line: KCN-induced necrosis of PC12 cells, LDH release. Format: cell-based, rat. The following applies: Rattus norvegicus, PC-12, 5 h, KCN, PC12, LDH release (Table 5). The method in brief: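 PC12 cells held 1 h in glucose-free DMEM with 2 mM pyruvate and 10% dialyzed FCS, given compounds in DMSO (0.1% final) 30 min before KCN, then exposed 5 h. Necrosis read as LDH released to medium as % of total (0.1% Triton X-100 lysate), A490; protection from LDH release with vs without inhibitor.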

Take `CCC(=O)N1CCN=C1N1CCN(C)CC1` [M059-0891, 1-(2-(4-methylpiperazin-1-yl)-4,5-dihydro-1H-imidazol-1-yl)propan-1-one]: the “necrosis and infarct size” value in assay [1] was “significant reduction”. For the same molecule, the inhibition at 0.0001 µM in assay [2] (0.1 nM, read-out: % protection at 0.1 nM) came to 25%. Further, in assay [2] (1 nM, read-out: % protection at 1 nM), the inhibition at 0.001 µM was found to be 36%. The inhibition at 0.01 µM in assay [2] (10 nM, read-out: % protection At 10 nM) came out at 55%. Moreover, the inhibition at 0.1 µM in assay [2] (0.1 μM, read-out: % protection at 0.1 μM) stood at 84%. In addition, the inhibition at 1 µM in assay [2] (1 μM, read-out: % protection at 1 μM) was 85%.
